Values of other authors as cited in patent US9550804B2, “Dosage form to increase prasterone bioavailability” (Health Science Funding, LLC, priority 2011, dated 2017).
In brackets after ≈: the same amount, converted by molar mass.

Tests used:
[1] = not given; remark: listed apart in the source

Compound: C[C@]12CC[C@H](O)CC1=CC[C@@H]1[C@@H]2CC[C@]2(C)C(=O)CC[C@@H]12 [Prasterone, (3S,8R,9S,10R,13S,14S)-3-hydroxy-10,13-dimethyl-3,4,7,8,9,10,11,12,13,14,15,16-dodecahydro-1H-cyclopenta[a]phenan-thren-17(2H)-one]
- solubility in water: 63.5 µg/mL (≈ 220 µM)
- log P (octanol-water) [1]: 3.23
